From PubChem BioAssay (NCI)
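Compound exposure: 48 hours, 5 concentrations, 96-well plates. TGI: total growth inhibition.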

Columns and labels:
Test in all cases: NCI tumour cell line growth inhibition, 48 h
HOP-92 NSCLC = test system: HOP-92 NSCLC
HOP-62 NSCLC = test system: HOP-62 NSCLC
OVCAR-8 ovarian = test system: OVCAR-8 ovarian
HL-60(TB) leukemia = test system: HL-60(TB) leukemia
CCRF-CEM leukemia = test system: CCRF-CEM leukemia
COLO 205 colon = test system: COLO 205 colon
KM12 colon = test system: KM12 colon
U251 CNS = test system: U251 CNS
SK-MEL-28 melanoma = test system: SK-MEL-28 melanoma
XF 498 CNS = test system: XF 498 CNS

Compound | TGI (HOP-92 NSCLC) | TGI (HOP-62 NSCLC) | TGI (OVCAR-8 ovarian) | TGI (HL-60(TB) leukemia) | TGI (CCRF-CEM leukemia) | TGI (COLO 205 colon) | TGI (KM12 colon) | TGI (U251 CNS) | TGI (SK-MEL-28 melanoma) | TGI (XF 498 CNS)
Cc1[nH]c(=O)nc(NCCNCCO)c1C(=O)Nc1cccc2cc3ccccc3cc12 | > 100 µM | > 100 µM | > 100 µM | > 100 µM | > 100 µM | > 100 µM | > 100 µM | > 100 µM | > 100 µM | 
CCCCSc1nsc(N(C(=O)c2ccccc2)C(=O)c2ccccc2)n1 | 75 µM | > 100 µM | > 100 µM | 74 µM | > 100 µM | 41.5 µM | > 100 µM | > 100 µM | > 100 µM | 
CCOc1ccc(Nc2nc(N)nc(N)c2N)cc1 | > 100 µM | 79 µM | > 100 µM | > 100 µM | > 100 µM | 70.2 µM | 73.5 µM | 66 µM | > 100 µM | 
Cn1c(=O)c2c(nc3n(Cc4ccccc4)c(=O)c(NCCCBr)cn23)n(C)c1=O | 58.5 µM | > 100 µM | > 100 µM | > 100 µM | > 100 µM | > 100 µM | > 100 µM | > 100 µM | > 100 µM | 
Cc1cc2ncn(C3CCCCO3)c2cc1C (stereo not given) | > 100 µM | > 100 µM | > 100 µM | > 100 µM | > 100 µM | > 100 µM | > 100 µM | > 100 µM | > 100 µM | 
CS(=O)(=O)Nc1ccc2c(c1)N(S(C)(=O)=O)CC2CCl (stereo not given) | > 100 µM | > 100 µM | > 100 µM | > 100 µM | > 100 µM | > 100 µM | > 100 µM | > 100 µM | > 100 µM | 
c1ccc2c(c1)Sc1nccc3ccnc-2c13 | > 100 µM | > 100 µM | > 100 µM | > 100 µM | > 100 µM | > 100 µM | > 100 µM | > 100 µM | > 100 µM | 
COc1ccc(Nc2nc(N)c(C(=O)c3c[nH]c4ccccc34)s2)cc1 | 29.3 µM | > 71.4 µM | > 100 µM | 14 µM | 6.02 µM | 4.06 µM | 26.1 µM | > 100 µM | > 91.6 µM | 
Cc1cc(S(=O)(=O)/N=C(/C(=C=[N-])C#N)[n+]2ccc(N(C)C)cc2)c(SCC(=O)O)cc1Cl | 70.4 µM | > 100 µM | > 100 µM | > 100 µM | > 100 µM | > 100 µM | > 100 µM | > 100 µM | > 100 µM | 
Cc1cc(C)c(S(=O)(=O)N(CCCN)OCCCON(CCCN)S(=O)(=O)c2c(C)cc(C)cc2C)c(C)c1 | 5.27 µM | 4.02 µM | 11 µM | 5.64 µM | 16.8 µM | 3.5 µM | 3.79 µM | 3.08 µM | 3.94 µM | 
Cc1cc(C)nc(NS(=O)(=O)c2ccc(Nc3c4ccccc4nc4c(C(=O)N5CCN(CCOS(C)(=O)=O)CC5)cccc34)cc2)n1 | > 100 µM | > 100 µM | > 100 µM | > 100 µM | > 100 µM | > 100 µM | > 100 µM | > 100 µM | > 100 µM | > 100 µM
C[C@]12CCC(=O)[C@@H](CCC3=CC(=O)C=CC3=O)[C@@H]1CCC2=O | > 100 µM | > 100 µM | > 69.5 µM | 39.1 µM | > 100 µM | 31.2 µM | 32 µM | > 47.3 µM | 37.1 µM | 
N#C/C(=C/n1c(=S)[nH]c2ccc([N+](=O)[O-])cc21)C(N)=O | > 100 µM | > 100 µM | > 100 µM | > 100 µM | > 100 µM | > 100 µM | > 100 µM | > 100 µM | > 100 µM | 
COC(=O)C1(CCCCCBr)CCCCCCCCCCC1=O (stereo not given) | > 100 µM | > 100 µM | > 100 µM | 49.9 µM | 45 µM | > 100 µM | > 100 µM | > 100 µM | 92.2 µM | 
CCn1c2ccc(C(=O)CCCN3CCCCC3)cc2c2cc(C(=O)CCCN3CCCCC3)ccc21 | 30.3 µM | 18.2 µM | 6.6 µM | > 100 µM | 9.83 µM | 15.7 µM | 8.76 µM | 4.73 µM | 34.8 µM | 
COc1ccc2nc(/C(N)=C\C#N)ccc2c1 | > 100 µM | > 100 µM | > 100 µM | 46.5 µM | > 100 µM | > 100 µM | > 100 µM | > 100 µM | > 100 µM | 
